Assay results taken from patent US12577214B2, “Polymorphs of bis(fluoroalkyl)-1,4-benzodiazepinone compounds and uses thereof” (Bristol-Myers Squibb Company, priority 2020, dated 2026).
Converted amounts (≈) assume the structure as drawn. Read-outs that look alike come from different tables or passages of the source.

Assays:
Type in all cases: physicochemical
[1] = Form stability on slurrying in aqueous solutions (PXRD); details: slurry at RT in FASIF and in HCl (pH=1)
Description: FIG. 16 depicts PXRD patterns of: P1 form following slurrying thereof in FASIF (fasted state simulated intestinal fluid) (top); in HCl (pH=1) (middle); and of N-2 form (bottom). […] (FIG. 14). […] (FIG. 15).

[2] = Solid state stability of N-2 free base form
Description: Solid state stability was conducted only on N-2, at 5° C., 25° C., 40° C./75% RH (open and closed), and 50° C. for up to 4 weeks.

[3] = Form stability on heating (PXRD); details: heating to 270° C.
Description: FIG. 1 depicts PXRD patterns of the N-2 form at room temperature (bottom), 165° C. (middle) and 270° C. (top).
The crystal structure for Compound 1 was determined by single crystal X-ray diffraction studies on elongated prismatic crystals grown from THF/heptane. The intermolecular hydrogen-bonding in the N-2 structure is shown in FIGS. 12A-12B; the structure contains small voids of about 20 Å^3. The experimental PXRD pattern for N-2 matches the simulated pattern which confirms the single phase identity of N-2 crystallized in bulk (FIG. 13). […] (FIG. 1).

[4] = Solubility of N-2 in water and solvents
Description: N-2 has an aqueous solubility of <1 μg/mL in water.

| Compound | Form after slurrying in aqueous solutions [1] | Solid state stability (chemical and physical) ([2]; 5° C., 25° C., 40° C./75% RH (open and closed), and 50° C. for up to 4 weeks) | Stability when exposed to high intensity light (HIL)/ultraviolet (UV) light ([2]; HIL/UV light for 7 days) | Physical form after heating [3] | solubility ([4]; PEG 400, organic solvent or mixture, read-out: solubility in PEG 400) [mg/mL] | solubility ([4]; in water, read-out: aqueous solubility) [mg/mL] |
| --- | --- | --- | --- | --- | --- | --- |
| Cc1cccc2c1NC(=O)[C@@H](NC(=O)[C@H](CCC(F)(F)F)[C@H](CCC(F)(F)F)C(N)=O)N=C2c1cccc(F)c1 [Compound P1] | converts to N-2 | – | – | – | – | – |
| Cc1cccc2c1NC(=O)[C@@H](NC(=O)[C@H](CCC(F)(F)F)[C@H](CCC(F)(F)F)C(N)=O)N=C2c1cccc(F)c1 [Compound N-2] | – | chemically and physically stable | chemically and physically stable | No physical change in form | ~38 (≈ 66.1 mM) | < 0.001 |
